Test results reported in US20260207621A1 (Vividion Therapeutics, Inc., priority 2022, published 2026).

Columns and labels:
Nrf2 = Nrf2 antagonism assay: ARE luciferase reporter in KYSE-70 cells; type: cell-based; details: positive Imax corresponds to Nrf2 antagonism; for Emax: Homo sapiens, KYSE-70, KYSE-70 cells, read-out: KYSE70 Cellular ARE Luciferase Imax (%)
Description: NRF2 binds to a promoter region, antioxidant response element (ARE), to initiate expression of multiple genes. ARE luciferase reporter assays are used to test whether a ligand can activate or repress the expression of target genes using luciferase as a reporter gene.
KYSE-70 is an esophageal squamous cell carcinoma cell line with a Nrf2 mutation at amino acid position W24C. This mutation lowers the affinity between the E3 ligase that includes KEAP1 and Nrf2, resulting in a state in which the synthesis rate of new Nrf2 is faster than the E3's degradation rate of Nrf2, resulting in a “Nrf2 high” state. In KYSE-70 cells, genes are inserted directly after the ARE that trigger the expression of luciferase. Without a NRF2 antagonist in this modified KYSE70 cell line which has an inherently “NRF2 high state”, luciferase is expressed, and a signal is observed.
Nrf2 antagonists bind at C151 of KEAP1 and stabilize the E3 which results in an increased degradation rate of Nrf2. Increased degradation of Nrf2 results in less expression of luciferase, and therefore a less intense signal.
An IC50 is generated from the dose-response curve and an Imax. A positive Imax corresponds to Nrf2 antagonism. Imax >90% correlates with in vivo tumor grown inhibition. Compounds with Imax >50% were included in this description.

KEAP1 C151 = target: T1, KEAP1 C151 (Homo sapiens, UniProt Q14145); test: Nrf2 TMT measurement: in vitro TE50 for KEAP1 C151 (IA-DTB competition, targeted TMT mass spectrometry) in MDA-MB-468 cell lysate; type: binding; details: in vitro target engagement of KEAP1 C151, targeted TMT, read-out: KEAP1_C151 TE50
T1 construct: treating 500 μg of cell lysate generated from MDA-MB-468 breast cancer cells with DMSO or compound; endogenous in cells; host or cells: MDA-MB-468 breast cancer cell lysate
Experimental: In vitro TE50 values for KEAP_C151 were obtained by treating 500 μg of cell lysate generated from MDA-MB-468 breast cancer cells with DMSO or compound for 1 hour at room temperature followed by the addition of 200 μM IA-DTB (in DMSO) for one hour at room temperature. Samples were then precipitated by the addition of 8× ice cold acetonitrile and incubated at −80° C. for two hours. Protein was then pelleted by centrifugation (4,200 RPM, 45 min, 4° C.). The pelleted material was resuspended in 9M Urea, 50 mM ammonium bicarbonate and proteins were reduced and alkylated by the addition of DTT and iodoacetamide (10 and 30 mM, respectively). Following reduction and alkylation, samples were exchanged into 2M urea (Zeba spin desalting plates, Thermo Fisher) and digested with Trypsin. IA-DTB labeled peptides were isolated with streptavidin agarose resin. Enriched peptides were eluted by the addition of 50% acetonitrile (ACN) 0.1% Formic Acid (FA) and dried in a SpeedVac vacuum concentrator.
Dried peptides were resuspended in 0.2 M EPPS pH 8.5 and treated with 6.5 μL of 11-plex tandem mass tag (TMT) (8.3 μg/μL in dry ACN) for 2 hours at room temperature. Reactions were quenched by the addition of 6.5 μL of 5% Hydroxylamine. Samples were then combined and desalted on a Biotage Evolute express ABN plate (600-0010-PX01).
Targeted TMT. Targeted TMT measurements were collected using an Orbitrap LumosTribrid Mass Spectrometer (Thermo Scientific) coupled to an UltiMate 3000 Series Rapid Separation LC system and autosampler (Thermo Scientific Dionex). Peptides were eluted onto a custom C18 capillary analytical column (75-μm inner diameter fused silica, packed with Acclaim PepMap C18 resin (Thermo Scientific)) using an Acclaim PepMap 100 (Thermo 164535) loading column, and separated at a flow rate of 1.0 μl min−1. Data were acquired using a specific MS3-based TMT method targeting the peptide containing KEAP1 C151 (C(+324.2)[…], +3 charge state) where MS2 peptide fragmentation is triggered upon detection of the peptide precursor ion. Subsequent MS3 analysis was then performed using pre-selected peptide fragment ions that were isolated for fragmentation using synchronous precursor selection. RAW files were converted to MZXML format and searched with the SEQUEST algorithm using the MassPike software package. TMT quantitation was performed with a filter requiring at least ten summed signal-to-noise for control channels. Quantified signals were used for dose response curve-fitting and IC50 calculation using R's drc package.

T1 sequence (Q14145 whole entry): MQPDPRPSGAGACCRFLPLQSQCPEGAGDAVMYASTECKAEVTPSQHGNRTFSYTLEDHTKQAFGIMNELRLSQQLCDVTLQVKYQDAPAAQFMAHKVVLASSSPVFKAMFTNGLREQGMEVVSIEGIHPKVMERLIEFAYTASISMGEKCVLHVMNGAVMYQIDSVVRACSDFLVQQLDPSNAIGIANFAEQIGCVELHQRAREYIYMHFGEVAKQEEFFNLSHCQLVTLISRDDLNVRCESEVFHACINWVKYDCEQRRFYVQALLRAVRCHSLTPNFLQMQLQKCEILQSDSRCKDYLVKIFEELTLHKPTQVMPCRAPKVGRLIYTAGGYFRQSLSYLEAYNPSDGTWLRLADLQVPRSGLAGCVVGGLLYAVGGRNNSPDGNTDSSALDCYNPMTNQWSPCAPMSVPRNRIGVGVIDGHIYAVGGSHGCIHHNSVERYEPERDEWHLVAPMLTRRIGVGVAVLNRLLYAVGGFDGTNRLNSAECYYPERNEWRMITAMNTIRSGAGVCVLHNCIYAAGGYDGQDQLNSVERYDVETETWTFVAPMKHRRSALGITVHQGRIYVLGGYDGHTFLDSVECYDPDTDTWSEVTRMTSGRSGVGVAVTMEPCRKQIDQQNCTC

IC50 (KEAP1 C151)	Compound	Emax (Nrf2)	KYSE70 Cellular ARE Luciferase Imax (%) (Nrf2; KYSE-70 cells)
43 nM	C=CC(=O)N1CC(C)(C)S(=O)(=O)CC1c1cc(Cl)cc(-c2nccc(N)n2)c1 (single isomer, unassigned) [Compound 246, 1-(5-(3-(4-aminopyrimidin-2-yl)-5-chlorophenyl)-2,2-dimethyl-1,1-dioxidothiomorpholino)prop-2-en-1-one]	90%	
20 nM	C=CC(=O)N1CCOC[C@H]1c1cc(Cl)cc(-c2nccc(N)n2)c1 (single isomer, unassigned) [Compound 96]	94%	
144 nM	C=CC(=O)N1CCOCC1c1cc(Cl)cc(-c2ccnnc2)c1 (single isomer, unassigned) [Compound 14, 1-(3-(3-chloro-5-(pyridazin-4-yl)phenyl)morpholino)prop-2-en-1-one]	55%	
45 nM	C=CC(=O)N1CCS(=O)(=O)CC1c1cc(Cl)cc(-c2ncc(N)cn2)c1 (single isomer, unassigned) [Compound 207, 1-(3-(3-(5-aminopyrimidin-2-yl)-5-chlorophenyl)-1,1-dioxidothiomorpholino)prop-2-en-1-one]	90%	
25 nM	C=CC(=O)N1CCOCC1c1cc(Cl)cc(-c2ccn3ccnc3c2)c1 (single isomer, unassigned) [Compound 43, 1-(3-(3-chloro-5-(imidazo[1,2-a]pyridin-7-yl)phenyl)morpholino)prop-2-en-1-one]	87%	
22 nM	C=CC(=O)N1CCC(F)(F)CC1c1cc(Cl)cc(-c2cc(C)ncn2)c1 (single isomer, unassigned) [Compound 285, 1-(2-(3-chloro-5-(6-methylpyrimidin-4-yl)phenyl)-4,4-difluoropiperidin-1-yl)prop-2-en-1-one]	83%	
6.6 nM	C=CC(=O)N1CC2(CC2)OCC1c1cc(Cl)nc(-c2ccn3ccnc3c2)c1 (single isomer, unassigned) [Compound 190, 1-(6-(2-chloro-6-(imidazo[1,2-a]pyridin-7-yl)pyridin-4-yl)-4-oxa-7-azaspiro[2,5]octan-7-yl)prop-2-en-1-one]	75%	
16 nM	C=CC(=O)N1CCOCC1c1cc(Cl)cc(-c2cc(=O)[nH]cn2)c1 (single isomer, unassigned) [Compound 94, 6-(3-(4-acryloylmorpholin-3-yl)-5-chlorophenyl)pyrimidin-4(3H)-one]	87%	
67 nM	C=CC(=O)N1CC(C)(C)OC[C@H]1c1cc(Cl)cc(-c2nccc(N)n2)c1 (single isomer, unassigned) [Compound 155]	94%	
89 nM	C=CC(=O)N1CC(C)(C)OC[C@H]1c1cc(Cl)cc(-c2ncc(F)cn2)c1 (single isomer, unassigned) [Compound 45]	83%	
22.8 nM	C=CC(=O)N1CCOC[C@H]1c1cc(Cl)cc(-c2ncccn2)c1 (single isomer, unassigned) [Compound 10]	79%	
19 nM	C=CC(=O)N1CCOC[C@H]1c1cc(Cl)cc(-c2ncc(OC)c(N)n2)c1 [Compound 261, (R)-1-(3-(3-(4-amino-5-methoxypyrimidin-2-yl)-5-chlorophenyl)morpholino)prop-2-en-1-one]	95%	
16 nM	C=CC(=O)N1CCC(F)(F)CC1c1cc(Cl)cc(-c2ncc(N)cn2)c1 (single isomer, unassigned) [Compound 247, 1-(2-(3-(5-aminopyrimidin-2-yl)-5-chlorophenyl)-4,4-difluoropiperidin-1-yl)prop-2-en-1-one]	91%	
120 nM	C=CC(=O)N1CCOC[C@H]1c1cc(Cl)cc(-c2ccc(N)nn2)c1 (single isomer, unassigned) [Compound 128]	70%	
7.3 nM	C=CC(=O)N1CCOC[C@H]1c1cc(Cl)cc(-c2cc(OC)ncn2)c1 (single isomer, unassigned) [Compound 86]	83%	
49 nM	C=CC(=O)N1CCOCC1c1cc(Cl)cc(-c2cnccn2)c1 (single isomer, unassigned) [Compound 54, 1-(3-(3-chloro-5-(pyrazin-2-yl)phenyl)morpholino)prop-2-en-1-one]	70%	
330 nM	C=CC(=O)N1CCOC[C@H]1c1cc(Cl)cc(C2CNC(=O)NC2)c1 (single isomer, unassigned) [Compound 222]	85%	
350 nM	C=CC(=O)N1CCOC[C@H]1c1cc(Cl)cc(-n2cnc(N)n2)c1 [Compound 215, (R)-1-(3-(3-(3-amino-1H-1,2,4-triazol-1-yl)-5-chlorophenyl)morpholino)prop-2-en-1-one]	65%	
49 nM	C=CC(=O)N1CCOC[C@H]1c1cc(Cl)cc(-c2ncc(C(N)=O)o2)c1 (single isomer, unassigned) [Compound 220]	73%	
2.6 nM	C=CC(=O)N1CCN(S(C)(=O)=O)CC1c1cc(Cl)cc(-c2ccnc(NC(C)=O)c2)c1 (single isomer, unassigned) [Compound 6, N-(4-(3-(1-acryloyl-4-(methylsulfonyl)piperazin-2-yl)-5-chlorophenyl)pyridin-2-yl)acetamide]	58%	
79 nM	C=CC(=O)N1CCOCC1c1cc(Cl)nc(-c2cc(C#N)ncn2)c1 (single isomer, unassigned) [Compound 129, 6-(4-(4-acryloylmorpholin-3-yl)-6-chloropyridin-2-yl)pyrimidine-4-carbonitrile]	84%	
12 nM	C=CC(=O)N1CCN(C(C)=O)C[C@H]1c1cc(Cl)cc(-c2ccnc(N)n2)c1 (single isomer, unassigned) [Compound 81]	85%	
560 nM	C=CC(=O)N1CCOC[C@H]1c1cc(Cl)cc(-c2nc(N)nc(NCCCN(C)C)n2)c1 (single isomer, unassigned) [Compound 229]	92%	
330 nM	C=CC(=O)N1CCS(=O)(=O)CC1c1cc(Cl)cc(-c2ccn(C)c(=O)c2)c1 (racemic) [Compound 29, 4-(3-(4-acryloyl-1,1-dioxidothiomorpholin-3-yl)-5-chlorophenyl)-1-methylpyridin-2(1H)-one]	62%	
60.5 nM	C=CC(=O)N1CCOC[C@H]1c1cc(Cl)cc(-c2nnn(C)n2)c1 (single isomer, unassigned) [Compound 9]	76%	
3.5 nM	C=CC(=O)N1[C@H](c2cc(Cl)nc(-c3cc(C(N)=O)ncn3)c2)COC[C@H]1C(F)F (single isomer, unassigned) [Compound 223]	94%	
32 nM	C=CC(=O)N1CC2(CC2)OCC1c1cc(Cl)nc(-c2cc(N)ncn2)c1 (single isomer, unassigned) [Compound 175, 1-(6-(2-(6-aminopyrimidin-4-yl)-6-chloropyridin-4-yl)-4-oxa-7-azaspiro[2.5]octan-7-yl)prop-2-en-1-one]		92%
94 nM	C=CC(=O)N1[C@H](C)COC[C@H]1c1cc(Cl)cc(-c2ncc(N)cn2)c1 (single isomer, unassigned) [Compound 130]	89%	
600 nM	C=CC(=O)N1CCCOCC1c1cc(Cl)cc(-c2ncnc(N)n2)c1 (racemic) [Compound 162, 1-(3-(3-(4-amino-1,3,5-triazin-2-yl)-5-chlorophenyl)-1,4-oxazepan-4-yl)prop-2-en-1-one]	80%	
